From patent US11142535B2, “Heterocyclic compound as Syk inhibitor and/or Syk-HDAC dual inhibitor” (Hangzhou Innogate Pharma Co., Ltd., priority 2016, dated 2021)
pIC50: −log10 of the molar value.

Tests used:
HDAC1 = HDAC1 (Homo sapiens (Human), UniProt Q13547); test: HDAC-1 activity inhibition, fluorescence (Synergy MX); type: biochemical; conditions: trypsin and Ac-peptide substrate, 60 minutes, room temperature
Procedure: HDAC activity was measured by the Synergy MX Multi-Function Microplate Reader. The compounds were dissolved with DMSO, and transferred to a 384 well test plate using an Echo non-contact nanoscale sonic pipetting system. 15 μl of enzyme (HDAC1/HDAC6, respectively) solvent was added, and incubated at room temperature for 15 minutes, then 10 μl of substrate (trypsin and Ac-peptide) solution was added. […] Fluorescence intensity signal was convented into inhibition rate data (% inhibition rate=(max−fluorescence intensity)/(max−min)*100). The max refers to the fluorescence intensity of the DMSO control, and min refers to the fluorescence intensity of the enzyme-free control. The curve was drawn with the compound concentration and inhibition rate as the horizontal and vertical coordinates, and the curve was fitted with the GraphPad Prism V5.0 Software, and IC50 was calculated.

SYK protein kinase = SYK protein kinase (Homo sapiens (Human), UniProt P43405); test: Syk kinase activity inhibition, Caliper mobility shift assay; type: biochemical; conditions: Peptide FAM-P22 and ATP, 30 minutes, 28° C.
Procedure: Measure of SYK protein kinase activity was carried out by using the Caliper mobility shift assay. The compound was dissolved with DMSO and diluted with kinase buffer (20 mM HEPES pH 7.5, 0.01% Triton X-100, 5 mM MgCl2, 1 mM MnCl2, 2 mM DTT), and 5 μl of 5 times the final concentration of the compounds (10% DMSO) were added to 384 well plate. […] The mixture was incubated for 30 minutes under 28° C., and 25 μl of stop buffer (100 mM HEPES pH 7.5, 0.015% Brij-35, 0.2% Coating Reagent #3, 50 mM EDTA) was added to terminate the reaction. Conversion rate data was read by Caliper EZ Reader II (Caliper Life Sciences). Conversion rate was converted to inhibition rate data (% inhibition rate=(max−conversion rate)/(max−min)*100). The max refers to the conversion rate of the DMSO control, and min refers to the conversion rate of the enzyme-free control. The curve was drawn with the compound concentration and inhibition rate as the horizontal and vertical coordinates, and the curve was fitted with the XLFit excel add-in version 4.3.1 Software, and IC50 was calculated.

Chain of HDAC1 (Q13547 whole entry, species assumed): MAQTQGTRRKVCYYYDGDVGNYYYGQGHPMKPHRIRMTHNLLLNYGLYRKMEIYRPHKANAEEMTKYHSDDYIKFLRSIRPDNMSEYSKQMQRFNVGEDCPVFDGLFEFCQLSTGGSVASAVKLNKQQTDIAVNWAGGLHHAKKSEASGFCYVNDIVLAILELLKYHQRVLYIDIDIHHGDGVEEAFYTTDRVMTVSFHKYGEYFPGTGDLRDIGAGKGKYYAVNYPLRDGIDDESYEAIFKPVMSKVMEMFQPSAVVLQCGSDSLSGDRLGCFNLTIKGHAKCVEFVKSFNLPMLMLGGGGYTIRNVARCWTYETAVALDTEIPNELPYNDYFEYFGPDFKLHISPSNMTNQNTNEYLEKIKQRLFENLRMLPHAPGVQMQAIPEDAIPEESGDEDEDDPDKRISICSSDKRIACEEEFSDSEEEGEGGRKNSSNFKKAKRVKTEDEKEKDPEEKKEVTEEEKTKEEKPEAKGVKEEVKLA

Row | Structure (SMILES) | pIC50 (HDAC1) | pIC50 (SYK protein kinase)
1 | CN(CCCCCCC(=O)NO)c1ccc(Nc2nc(-c3ccc4cn[nH]c4c3)cn3ccnc23)cc1 [Compound 20] | > 7.70 | > 7.30
2 | CN(CCOCCC(=O)NO)c1ccc(Nc2nc(-c3ccc4cn[nH]c4c3)cn3ccnc23)cc1 [Compound 22] | > 6.30 | > 7.30
3 | O=C(NO)c1ccc(NC(=O)c2cccc(-c3cn4ccnc4c(Nc4ccc(N5CCOCC5)cc4)n3)c2)cc1 [Compound 13] | > 6.70 | > 7.00
4 | O=C(N1CCN2c3ccc(Nc4nc(-c5ccc6cn[nH]c6c5)cn5ccnc45)cc3OC[C@H]2C1)C(F)(F)F [Compound 9R] | – | > 7.00

Next, values leading:

Row | pIC50 (HDAC1) | pIC50 (SYK protein kinase) | Structure (SMILES)
5 | > 7.70 | > 6.30 | O=C(CCCCCCn1ncc2ccc(-c3cn4ccnc4c(Nc4ccc(N5CCOCC5)cc4)n3)cc21)NO [Compound 14]
6 | > 7.52 | > 7.30 | CN(CCN(C)c1ncc(C(=O)NO)cn1)c1ccc(Nc2nc(-c3ccc4cn[nH]c4c3)cn3ccnc23)cc1 [Compound 23]
